The record followed here is US20230416262A1, “TRPML MODULATORS” (Casma Therapeutics, Inc., priority 2020, published 2023).

Test [1] deals with TFEB. The test can be described thus: TFEB nuclear translocation assay. The test is classed as cell-based. The following applies: Homo sapiens; HeLa wt or HeLa TRPML1 KO cells, treated for 2 hrs; ratio of nuclear to ring-region TFEB intensity. An outline of the steps:
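HeLa wild-type or TRPML1 KO cells treated 2 h with compound at 37 °C, PFA-fixed, immunostained for TFEB (Alexa 488) with Hoechst nuclei. Imaged at ×20, four fields/well. Value is ratio of nuclear to perinuclear-ring TFEB intensity, with nuclei counts.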

In test [2] the test system is THP-1 cells. The test is described as follows: Lamp1 lysosomal exocytosis assay. The conditions noted are these: Homo sapiens, 55 min, 55 min incubation, top dose 20 μM. The test is classed as cell-based. An outline of the steps: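 THP-1 cells (1e5/well) exposed to a 7-point 3-fold compound series, top final 20 μM, for 55 min at 37°C. Surface Lamp1 then stained with Lamp1-PE on ice in buffer containing 80 μM Dynasore, and read by flow cytometry as PE geometric mean on live, sytox-negative singlets.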

Each structure is given as a SMILES string.

Take `O=C(NC1CCOc2ccccc21)N1CCC2(CC1)CN(S(=O)(=O)c1ccc(C(F)F)cc1)c1ccccc12` (centres unmarked) [Compound I-223, N-(chroman-4-yl)-1-((4-(difluoromethyl)phenyl)sulfonyl)spiro[indoline-3,4′-piperidine]-1′-carboxamide]: the figures for the concentration giving a half-maximal response (EC50) in test [1] and in test [2] were no more than 2 µM and 0.51 to 1 µM, respectively.
In the case of `O=C(Nc1ccc2c(c1)OCCO2)N1CCC2(CC1)CN(S(=O)(=O)c1ccc(C(F)F)cc1)c1ccccc12` [Compound I-225, 1-((4-(difluoromethyl)phenyl)sulfonyl)-N-(2,3-dihydrobenzo[b][1,4]dioxin-6-yl)spiro[indoline-3,4′-piperidine]-1′-carboxamide], the EC50 was no less than 10 µM in test [1] and no less than 5.01 µM in test [2].
With `COc1ccc(NC(=O)N2CCC3(CC2)CN(S(=O)(=O)c2ccc(C(F)F)cc2)c2ccccc23)cc1OC` [Compound I-226, 1-((4-(difluoromethyl)phenyl)sulfonyl)-N-(3,4-dimethoxyphenyl)spiro[indoline-3,4′-piperidine]-1′-carboxamide], the EC50 in test [1] was no less than 10 µM; in test [2], no less than 5.01 µM.
The corresponding values for `COc1ccc(NC(=O)N2CCC3(CC2)CN(S(=O)(=O)c2ccc(C(F)F)cc2)c2ccccc23)c(OC)c1` [Compound I-227, 1-((4-(difluoromethyl)phenyl)sulfonyl)-N-(2,4-dimethoxyphenyl)spiro[indoline-3,4′-piperidine]-1′-carboxamide] are 2.01 to 8 µM and no less than 5.01 µM.
For the molecule `COc1cccc(NC(=O)N2CCC3(CC2)CN(S(=O)(=O)c2ccc(C(F)F)cc2)c2ccccc23)c1OC` [Compound I-228, 1-((4-(difluoromethyl)phenyl)sulfonyl)-N-(2,3-dimethoxyphenyl)spiro[indoline-3,4′-piperidine]-1′-carboxamide], the half-maximal effective concentration (EC50) in test [1] is no more than 2 µM; in test [2] it was no less than 5.01 µM.
In the same order, the values of `O=C(Nc1ccccc1)C1CCC2(CC1)CN(S(=O)(=O)c1ccc(C(F)F)cc1)c1ccccc12` (centres unmarked) [Compound I-230, 1′-((4-(difluoromethyl)phenyl)sulfonyl)-N-phenylspiro[cyclohexane-1,3′-indoline]-4-carboxamide] are no more than 2 µM and no less than 5.01 µM.
`CN(C(=O)C1CCC2(CC1)CN(S(=O)(=O)c1ccc(C(F)F)cc1)c1ccccc12)c1ccccc1` (centres unmarked) [Compound I-234, 1′-((4-(difluoromethyl)phenyl)sulfonyl)-N-methyl-N-phenylspiro[cyclohexane-1,3′-indoline]-4-carboxamide]: the figures for the half-maximal effective concentration (EC50) in test [1] and in test [2] were no more than 2 µM and no less than 5.01 µM, respectively.
In the same order, the values of `CN(Cc1ccccc1)C(=O)C1CCC2(CC1)CN(S(=O)(=O)c1ccc(C(F)F)cc1)c1ccccc12` (centres unmarked) [Compound I-235, N-benzyl-1′-((4-(difluoromethyl)phenyl)sulfonyl)-N-methylspiro[cyclohexane-1,3′-indoline]-4-carboxamide] are no more than 2 µM and no less than 5.01 µM.
In the case of `O=C(OCc1ccccc1)N1CCC2(CC1)CN(C(=O)Cc1ccc(C(F)F)cc1)c1ccccc12` [Compound I-246, benzyl 1-(2-(4-(difluoromethyl)phenyl)acetyl)spiro[indoline-3,4′-piperidine]-1′-carboxylate], the 50% effective concentration (EC50) in test [1] is no less than 10 µM; in test [2] it was no less than 5.01 µM.
For the molecule `O=C(OCc1ccccc1)N1CCC2(CC1)CN(C(=O)Nc1ccc(C(F)F)cc1)c1ccccc12` [Compound I-247, benzyl 1-((4-(difluoromethyl)phenyl)carbamoyl)spiro[indoline-3,4′-piperidine]-1′-carboxylate], the results for the EC50 in test [1] and in test [2] were no less than 10 µM and no less than 5.01 µM, respectively.
In the same order, the values of `CN(C(=O)N1CC2(CCN(C(=O)OCc3ccccc3)CC2)c2ccccc21)c1ccc(C(F)F)cc1` [Compound I-248, benzyl 1-((4-(difluoromethyl)phenyl)(methyl)carbamoyl)spiro[indoline-3,4′-piperidine]-1′-carboxylate] are no less than 10 µM and no less than 5.01 µM.
Turning to `O=C(OCc1ccccc1)N1CCC2(CC1)CN(C(=O)Oc1ccc(C(F)F)cc1)c1ccccc12` [Compound I-249, 1′-benzyl 1-(4-(difluoromethyl)phenyl) spiro[indoline-3,4′-piperidine]-1,1′-dicarboxylate], the concentration giving a half-maximal response (EC50) in test [1] is no less than 10 µM; in test [2], no less than 5.01 µM.
Consider `O=C(OCc1ccccc1)N1CCC2(CC1)CN(S(=O)(=O)Cc1ccc(C(F)F)cc1)c1ccccc12` [Compound I-250, benzyl 1-((4-(difluoromethyl)benzyl)sulfonyl)spiro[indoline-3,4′-piperidine]-1′-carboxylate], for which the EC50 in test [1] is no more than 2 µM; in test [2] it was no more than 0.5 µM.
